Laboratory results from ChEMBL document CHEMBL5370521, “New miconazole-based azoles derived from eugenol show activity against Candida spp. and Cryptococcus gattii by inhibiting the fungal ergosterol biosynthesis” (Eur J Med Chem, 2023).
Converted amounts (≈) assume the structure as drawn. The source made the active and inactive calls. The calls are words filed in the database; no cut-off is given here.

Assays:
Candida albicans [1] = assay: Antifungal activity against Candida albicans SC5314 assessed as inhibition of fungal growth at highest concentration incubated for 24 to 48 hrs by CLSI protocol based broth microdilution method; type: functional, organism-based; conditions: time 24-48 hrs
Candida parapsilosis [2] = assay: Antifungal activity against Candida parapsilosis ATCC 22019 assessed as inhibition of fungal growth at highest concentration incubated for 24 to 48 hrs by CLSI protocol based broth microdilution method; type: functional, organism-based; conditions: time 24-48 hrs
Pichia kudriavzevii [3] = assay: Antifungal activity against Candida krusei ATCC 20298 assessed as inhibition of fungal growth at highest concentration incubated for 24 to 48 hrs by CLSI protocol based broth microdilution method; type: functional, organism-based; conditions: time 24-48 hrs
Candida tropicalis [4] = assay: Antifungal activity against Candida tropicalis ATCC 750 assessed as inhibition of fungal growth at highest concentration incubated for 24 to 48 hrs by CLSI protocol based broth microdilution method; type: functional, organism-based; conditions: time 24-48 hrs
[5] = Cytotoxicity against H9c2 cells assessed as inhibition of cell proliferation incubated for 72 hrs by resazurin dye based microplate reader analysis; type: toxicity; conditions: rat
Cryptococcus gattii VGI = assay: Antifungal activity against Cryptococcus gattii ATCC 24065 assessed as inhibition of fungal growth at highest concentration incubated for 24 to 48 hrs by CLSI protocol based broth microdilution method; type: functional; conditions: time 24-48 hrs
Nakaseomyces glabratus [6] = assay: Antifungal activity against Candida glabrata ATCC 2001 assessed as inhibition of fungal growth at highest concentration incubated for 24 to 48 hrs by CLSI protocol based broth microdilution method; type: functional, organism-based; conditions: time 24-48 hrs
[Candida] auris [7] = Antifungal activity against Candida auris COLO 01 A assessed as inhibition of fungal growth at highest concentration incubated for 24 to 48 hrs by CLSI protocol based broth microdilution method; type: functional, organism-based; conditions: Candidozyma auris, time 24-48 hrs
[8] = Selectivity index, ratio of CC50 for cytotoxicity against […] H9c2 cells to MIC for antifungal activity against Cryptococcus gattii ATCC 24065; type: toxicity, cell-based; conditions: rat, read-out: Selectivity Index
[9] = Selectivity index, ratio of CC50 for cytotoxicity against […] H9c2 cells to MIC for antifungal activity against Candida albicans SC5314; type: toxicity, cell-based; conditions: read-out: Selectivity Index
[Candida] auris [10] = Antifungal activity against Candida auris COLO 01 A assessed as inhibition of fungal growth incubated for 24 to 48 hrs by CLSI protocol based broth microdilution method; type: functional; conditions: Candidozyma auris, time 24-48 hrs
[Candida] auris [11] = Potency index, ratio of fluconazole MIC to test compound MIC for antifungal activity against Candida auris COLO 01 A assessed as inhibition of fungal growth incubated for 24 to 48 hrs by CLSI protocol based broth microdilution method; type: functional, Candidozyma auris; conditions: time 24-48 hrs
[12] = Antifungal activity against Cryptococcus gattii ATCC 24065 assessed as inhibition of fungal growth incubated for 24 to 48 hrs by CLSI protocol based broth microdilution method; type: functional, Cryptococcus gattii VGI; conditions: time 24-48 hrs
[13] = Selectivity index, ratio of CC50 for cytotoxicity against […] H9c2 cells to MIC for antifungal activity against Candida tropicalis ATCC 750; type: toxicity, cell-based; conditions: read-out: Selectivity Index
Nakaseomyces glabratus [14] = assay: Antifungal activity against Candida glabrata ATCC 2001 assessed as inhibition of fungal growth incubated for 24 to 48 hrs by CLSI protocol based broth microdilution method; type: functional; conditions: time 24-48 hrs
[15] = Selectivity index, ratio of CC50 for cytotoxicity against […] H9c2 cells to MIC for antifungal activity against Candida parapsilosis ATCC 22019; type: toxicity, cell-based; conditions: read-out: Selectivity Index
[16] = Selectivity index, ratio of CC50 for cytotoxicity against […] H9c2 cells to MIC for antifungal activity against Candida krusei ATCC 20298; type: toxicity, cell-based; conditions: read-out: Selectivity Index
[17] = Selectivity index, ratio of CC50 for cytotoxicity against […] H9c2 cells to MIC for antifungal activity against Candida glabrata ATCC 2001; type: toxicity, cell-based; conditions: rat, read-out: Selectivity Index
Pichia kudriavzevii [18] = assay: Antifungal activity against Candida krusei ATCC 20298 assessed as inhibition of fungal growth incubated for 24 to 48 hrs by CLSI protocol based broth microdilution method; type: functional; conditions: time 24-48 hrs
Candida albicans [19] = assay: Potency index, ratio of miconazole MIC to test compound MIC for antifungal activity against Candida albicans SC5314 assessed as inhibition of fungal growth incubated for 24 to 48 hrs by CLSI protocol based broth microdilution method; type: functional; conditions: time 24-48 hrs
[20] = Selectivity index, ratio of CC50 for cytotoxicity against […] H9c2 cells to MIC for antifungal activity against Candida auris COLO 01 A; type: toxicity, cell-based; conditions: read-out: Selectivity Index
[21] = target: T1, Lanosterol 14-alpha demethylase (Candida albicans (strain SC5314 / ATCC MYA-2876) (Yeast), UniProt P10613); assay: Inhibition of CYP51 in Candida albicans SC5314 assessed as reduction in ergosterol level at 3 fold MIC incubated overnight by spectrophotometric analysis
T1 sequence (P10613 whole entry): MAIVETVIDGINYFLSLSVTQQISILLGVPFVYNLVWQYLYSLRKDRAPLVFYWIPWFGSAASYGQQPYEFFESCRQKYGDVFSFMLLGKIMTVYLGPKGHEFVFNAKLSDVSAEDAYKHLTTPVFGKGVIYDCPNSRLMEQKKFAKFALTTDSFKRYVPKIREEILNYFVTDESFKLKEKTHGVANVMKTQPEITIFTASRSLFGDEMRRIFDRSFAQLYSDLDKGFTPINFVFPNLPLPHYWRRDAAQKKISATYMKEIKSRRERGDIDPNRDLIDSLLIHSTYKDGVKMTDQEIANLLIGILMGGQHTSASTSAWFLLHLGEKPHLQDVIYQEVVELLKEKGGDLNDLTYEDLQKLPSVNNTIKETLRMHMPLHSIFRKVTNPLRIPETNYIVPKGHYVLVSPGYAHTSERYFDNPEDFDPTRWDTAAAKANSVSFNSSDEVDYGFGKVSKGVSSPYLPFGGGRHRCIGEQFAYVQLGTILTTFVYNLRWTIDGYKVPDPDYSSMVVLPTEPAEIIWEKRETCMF

[22] = target: T1, Lanosterol 14-alpha demethylase; assay: Inhibition of CYP51 in Candida albicans SC5314 assessed as reduction in ergosterol level at 2 fold MIC incubated overnight by spectrophotometric analysis
Candida tropicalis [23] = assay: Antifungal activity against Candida tropicalis ATCC 750 assessed as inhibition of fungal growth incubated for 24 to 48 hrs by CLSI protocol based broth microdilution method; type: functional; conditions: time 24-48 hrs
Candida parapsilosis [24] = assay: Antifungal activity against Candida parapsilosis ATCC 22019 assessed as inhibition of fungal growth incubated for 24 to 48 hrs by CLSI protocol based broth microdilution method; type: functional; conditions: Lodderomyces parapsilosis, time 24-48 hrs
Candida albicans [25] = assay: Antifungal activity against Candida albicans SC5314 assessed as inhibition of fungal growth incubated for 24 to 48 hrs by CLSI protocol based broth microdilution method; type: functional; conditions: time 24-48 hrs
[Candida] auris [26] = Potency index, ratio of miconazole MIC to test compound MIC for antifungal activity against Candida auris COLO 01 A assessed as inhibition of fungal growth incubated for 24 to 48 hrs by CLSI protocol based broth microdilution method; type: functional, Candidozyma auris; conditions: time 24-48 hrs

Compound | Activity (Candida albicans [1]) | Activity (Candida parapsilosis [2]) | Activity (Pichia kudriavzevii [3]) | Activity (Candida tropicalis [4]) | CC50 at 72 h [5] | Activity (Cryptococcus gattii VGI) | Activity (Nakaseomyces glabratus [6]) | Activity ([Candida] auris [7]) | selectivity ratio [8] | MIC [12] | MIC (Nakaseomyces glabratus [14]) | selectivity ratio [17] | also measured
C=CCc1ccc(OCC(Cn2cncn2)OC(=O)c2ccc(Cl)cc2)c(OC)c1 (centres undefined) | inactive | inactive | inactive | inactive | 96.2 µM | inactive | inactive | inactive | – | – | – | – | –
CCCc1ccc(OCC(Cn2ccnc2)OCc2ccc(Cl)cc2)c(OC)c1 (centres undefined) | – | – | – | – | 44.2 µM | – | – | – | 2.4 | 18.8 µM (≈ 7.8 µg/mL) | 37.6 µM (≈ 15.6 µg/mL) | 1.2 | selectivity ratio [9]: 2.3; MIC ([Candida] auris [10]): 75.3 µM (≈ 31.2 µg/mL); Ratio ([Candida] auris [11]): >2; selectivity ratio [13]: 0.6; selectivity ratio [15]: 0.6; selectivity ratio [16]: 1.2; MIC (Pichia kudriavzevii [18]): 37.6 µM (≈ 15.6 µg/mL); Ratio (Candida albicans [19]): 8; selectivity ratio [20]: 0.6; inhibition (INH) [21]: Active; inhibition (INH) [22]: Active; MIC (Candida tropicalis [23]): 75.3 µM (≈ 31.2 µg/mL); MIC (Candida parapsilosis [24]): 75.3 µM (≈ 31.2 µg/mL); MIC (Candida albicans [25]): 18.8 µM (≈ 7.8 µg/mL)
CCCc1ccc(OCC(O)Cn2ccnc2)c(OC)c1 (centres undefined) | inactive | inactive | inactive | inactive | 453 µM | inactive | inactive | inactive | – | – | – | – | –
CCCc1ccc(OCC(Cn2cncn2)OCc2ccc(Cl)cc2)c(OC)c1 (centres undefined) | inactive | inactive | inactive | inactive | 40.1 µM | inactive | inactive | inactive | – | – | – | – | –
C=CCc1ccc(OCC(Cn2ccnc2)OCc2ccc(Cl)cc2)c(OC)c1 (centres undefined) | inactive | inactive | inactive | inactive | 33.6 µM | – | – | inactive | 1.8 | 18.9 µM (≈ 7.8 µg/mL) | 36.8 µM (≈ 15.2 µg/mL) | 0.9 | –
CCCc1ccc(OCC(Cn2ccnc2)OC(=O)c2ccc(Cl)cc2)c(OC)c1 (centres undefined) | inactive | inactive | inactive | inactive | 35.5 µM | – | – | – | 0.5 | 72.7 µM (≈ 31.2 µg/mL) | 36.4 µM (≈ 15.6 µg/mL) | 0.9 | MIC ([Candida] auris [10]): 36.4 µM (≈ 15.6 µg/mL); Ratio ([Candida] auris [11]): >5; selectivity ratio [20]: 0.9; Ratio ([Candida] auris [26]): 2
C=CCc1ccc(OCC(Cn2cncn2)OCc2ccc(Cl)cc2)c(OC)c1 (centres undefined) | inactive | inactive | inactive | inactive | 52.9 µM | inactive | inactive | inactive | – | – | – | – | –
